13 molecules from ChEMBL document CHEMBL1124256, “Enantiomeric effects of homologues of disoxaril on the inhibitory activity against human rhinovirus-14” (1988) can be followed below.

≈ marks a conversion by molar mass, not a printed value.

The assay concerns Human rhinovirus sp. Briefly: In vitro minimum inhibitory concentration against human rhinovirus-14 (HRV-14). It counts as functional.
In turn, `Cc1cc(CCCCCCCOc2ccc(C3=N[C@@H](C)CO3)cc2)on1` registered an MIC of 0.02 µg/mL (≈ 0.0561 µM).

Regarding `CC[C@@H]1COC(c2ccc(OCCCCCCCc3cc(C)no3)cc2)=N1`, the MIC stood at 0.06 µg/mL (≈ 0.162 µM).

The molecule `CCCC[C@H]1COC(c2ccc(OCCCCCCCc3cc(C)no3)cc2)=N1` had an MIC of 0.06 µg/mL (≈ 0.151 µM).

`Cc1cc(CCCCCCCOc2ccc(C3=N[C@@H](C(C)C)CO3)cc2)on1` yielded an MIC of 0.03 µg/mL (≈ 0.078 µM).

The molecule `CCC[C@H]1COC(c2ccc(OCCCCCCCc3cc(C)no3)cc2)=N1` showed an MIC of 0.01 µg/mL (≈ 0.026 µM).

Consider `CCC[C@@H]1COC(c2ccc(OCCCCCCCc3cc(C)no3)cc2)=N1`, for which the MIC was found to be 0.07 µg/mL (≈ 0.182 µM).

Turning to `Cc1cc(CCCCCCCOc2ccc(C3=N[C@H](C(C)C)CO3)cc2)on1`, the MIC is 0.13 µg/mL (≈ 0.338 µM).

As for `CCCC[C@@H]1COC(c2ccc(OCCCCCCCc3cc(C)no3)cc2)=N1`, the MIC was 0.52 µg/mL (≈ 1.3 µM).

`CC[C@H]1COC(c2ccc(OCCCCCCCc3cc(C)no3)cc2)=N1` came in with an MIC of 0.01 µg/mL (≈ 0.027 µM).

Regarding `Cc1cc(CCCCCCCOc2ccc(C3=N[C@H](C)CO3)cc2)on1`, the MIC was 0.2 µg/mL (≈ 0.561 µM).

The molecule `Cc1cc(CCCCCCCOc2ccc(C3=NC(C)CO3)cc2)on1` (stereo not drawn) registered an MIC of 0.03 µg/mL (≈ 0.0842 µM).

The molecule `Cc1cc(CCCCCCCOc2ccc(C3=NC(C)(C)CO3)cc2)on1` showed an MIC of 0.03 µg/mL (≈ 0.081 µM).

Molecule `Cc1cc(CCCCCCCOc2ccc(C3=NCCO3)cc2)on1` [DISOXARIL] had an MIC of 0.14 µg/mL (≈ 0.409 µM).
